Holding throughout (type): cell-based
Assay [1] concerns COL1A1. Kind of assay: In vitro efficacy in semi-activated LX2 cells, qPCR: COL1A1. The following applies: 48 hours, Q-PCR; for inhibition at 50 µM: LX-2, 50 µM; for inhibition at 12.5 µM: LX-2, test concentration 12.5 μM; for inhibition at 100 µM: LX-2, test concentration 100 μM. As to the method: (§1) Test compounds were added to the LX-2 cells respectively, and total RNA in the cells was extracted 48 hours later. This experiment was performed strictly in accordance with the instructions of the Total RNA Kit. The steps were as follows (note: this experiment was performed on ice throughout the entire process, and special RNase-free tips were used throughout the entire process): • 1) The 12-well cell culture plate was taken out from the incubator, the cell culture medium was discarded, the cells were washed twice with 1 mL of 1×PBS, and a negative pressure suction device was used to fully remove PBS; • 2) 350 μL of TRK Lysis Buffer mixture/well was prepared as needed (mixture preparation method: 1 mL of TRKLysis Buffer+20 μL of β-mercaptoethanol), vortexed and mixed well. 350 μL was added to each well of the 12-well cell culture plate, and allowed to stand at room temperature for 5 minutes to fully lyse the cells; • 3) 70% ethanol/well was prepared as needed, vortexed and mixed well. 350 μL was added to each well of the 12-well cell culture plate, mixed well by shaking, and transferred to the spin column (spin column+collection tube were assembled); • 4) Centrifugation was performed at 4° C., 12000 g for 60 sec. The waste liquid was discarded after centrifugation, while the spin column was kept; • 5) 500 μL of RNA Wash Buffer I was added, centrifuged at 4° C., 12000 g for 60 sec, the waste liquid was discarded after centrifugation, and the collection column was kept; • 6) 500 μL of RNA Wash Buffer II (confirmed that ethanol had been added) was added, centrifuged at 4° C., 12000 g for 60 sec, the waste liquid was discarded after centrifugation, and the collection column was kept; • 7) step 6) was repeated once again, centrifugation was performed at 4° C., 12000 g for 90 sec, the waste liquid was discarded after centrifugation, and the collection column was kept; • 8) Centrifugation was performed at 4° C., 12000 g for 120 sec to ensure that the spin column was fully dried; • 9) The dried spin column was inserted into a new 1.5 mL EP tube, and 30 μL of DEPC water was added to the membrane in the center of the spin column. It should be careful not to touch the EP tube cover in this step. It was allowed to stand at room temperature for 5 minutes to ensure that the RNA was fully dissolved in DEPC water. Centrifugation was performed at 4° C., 12000 g for 60 sec, and the EP tube was kept; • 10) NanoDrop ultra-micro-volume spectrophotometer was used to detect RNA concentration;
(§2) 5.2 Reverse transcription of RNA into cDNA: According to the instructions of PrimeScript™ RT reagent Kit (Perfect Real Time), the specific experimental steps were as follows:
(§3) 5.3 Q-PCR detection of target gene expression: According to the instructions of Power SYBR® Green PCR Master Mix, the specific operations were as follows:
(§4) After the reaction was completed, the amplification curve and dissolution curve of Q-PCR were confirmed, and the relative quantification method ([…]) was used to perform data analysis on the experimental results.
(§5) LX2 cells were passaged and plated normally. […] After 48 hours, the cells were collected, total RNA was extracted, and Q-PCR was used to detect the changes in the mRNA expression levels of liver fibrosis-related genes (ACTA2 encoding α-SMA, COL1A1 and COLIA2 encoding collagen I, COL3A1 encoding collagen III, SMAD3 encoding Smad3) and inflammation-related genes (IL1β encoding IL-1β, TNFα encoding TNFα) (for specific methods, see 5. Q-PCR detection of target gene expression as described above). α-SMA was a marker of hepatic stellate cell activation, and collagen I and collagen III were the main components of extracellular matrix deposition.
For orientation: In qPCR the cycle at which signal appears reflects the starting amount.

For assay [2], the system named is COL3A1. Kind of assay: In vitro efficacy in semi-activated LX2 cells, qPCR: COL3A1. The following applies: 48 hours, Q-PCR; for inhibition at 50 µM: LX-2, 50 µM; for inhibition at 12.5 µM: LX-2, test concentration 12.5 μM; for inhibition at 100 µM: LX-2, test concentration 100 μM. As for the experimental part:
as §1, §2, §3, §4, §5

Assay [3] deals with α-SMA. Kind of assay: In vitro efficacy in semi-activated LX2 cells, qPCR: α-SMA. The note with it: 48 hours, Q-PCR; for inhibition at 50 µM / inhibition at 12.5 µM / inhibition at 100 µM: read-out: α-SMA mRNA inhibition rate; for inhibition of the expression of α-SMA at the mRNA level: Table 2; for inhibition at 100 µM: test concentration 100 μM. As for the experimental part: as §1, §2, §3, §4, §5

In assay [4] the test system is Smad3. In words: In vitro efficacy in semi-activated LX2 cells, qPCR: Smad3. The following applies: 48 hours, Q-PCR; for inhibition at 50 µM: LX-2, 50 µM. As for the experimental part: as §1, §2, §3, §4, §5
The subject of assay [5] is collagen I and collagen III. In words: Semi-activated LX2 cells, qPCR: collagen I and collagen III at the mRNA level. The following applies: 48 hours, Q-PCR, Table 2. As to the method:
as §1, §3
LX2 cells were passaged and plated normally. After adherent growth for 12 hours, 50 µM of the test compound was added. After 48 hours, the cells were collected, total RNA was extracted, and Q-PCR was used to detect the changes in the mRNA expression levels of liver fibrosis-related genes (ACTA2 encoding α-SMA, COL1A1 and COLIA2 encoding collagen I, COL3A1 encoding collagen III, SMAD3 encoding Smad3) and inflammation-related genes (IL1β encoding IL-1β, TNFα encoding TNFα) (for specific methods, see 5. Q-PCR detection of target gene expression as described above). α-SMA was a marker of hepatic stellate cell activation, and collagen I and collagen III were the main components of extracellular matrix deposition. […]

Where [6] appears, read: Homo sapiens, read-out: COL1A1 mRNA inhibition rate.
The mark [7] stands for this setting: Homo sapiens, read-out: COL3A1 mRNA inhibition rate.
The mark [8] stands for this setting: Homo sapiens, read-out: Smad3 mRNA inhibition rate.

What is called inhibition is the percentage by which the read-out fell short of the control.

SMILES strings stand for the structures. Structures can show the parent of a compound that is named as a salt. Where a SMILES comes first, the peptide text is derived from it.

As to `N[C@@H](CC(=O)O)C(=O)OCc1ccccc1` [Compound 20], in assay [1] (test concentration 12.5 μM), the “COL1A1 mRNA inhibition rate” value was “E (E represented that the inhibition rate was 1% to 10%)”. Besides, the “COL3A1 mRNA inhibition rate” value in assay [2] (test concentration 12.5 μM) is “E (E represented that the inhibition rate was 1% to 10%)”. Moreover, the “α-SMA mRNA inhibition rate” value in assay [3] (test concentration 12.5 μM) is on record as “E (E represented that the inhibition rate was 1% to 10%)”. Besides, the “Smad3 mRNA inhibition rate” value in assay [4] (test concentration 12.5 μM) is reported as “E (E represented that the inhibition rate was 1% to 10%)”.
Regarding `CC(C)(C)OC(=O)N[C@@H](CC(=O)OCc1ccccc1)C(=O)O` [Compound 24], the inhibition at 50 µM in assay [1] (setting [6]) and in assay [2] (setting [7]) was 1 to 10% each time.
With `COC(=O)[C@H](CC(=O)O)NC(=O)OCc1ccccc1` [Compound 25], the inhibition at 50 µM in assay [1] (setting [6]) and in assay [3] was 1 to 10% throughout.
Consider `N[C@@H](CC(=O)NC(c1ccccc1)(c1ccccc1)c1ccccc1)C(=O)O` [Compound 27], for which the inhibition at 50 µM in assay [4] (setting [8]) lay within 1 to 10%.
Take `COC(=O)[C@H](Cc1ccccc1)NC(=O)C[C@H](N)C(=O)O` [Compound 32]: the inhibition at 50 µM in assay [1] (setting [6]) was in the range of 10 to 25%; in assay [2] (setting [7]) it was 1 to 10%; in assay [3], 1 to 10%.
Turning to `CCOC(=O)C[C@H](N)C(=O)O` [Compound 35, 4-ethyl L-aspartic acid ester], the inhibition at 50 µM was in the range of 10 to 25% in assay [1] (setting [6]) and 1 to 10% in assay [2] (setting [7]). In assay [5], the “inhibition of the expression of collagen I and collagen III at the mRNA level” value is listed as “could inhibit”.
For `C[C@@H](NC(=O)[C@@H](N)CC(=O)O)C(=O)NC1C(C)(C)SC1(C)C` [Compound 38], in that order: 25 to 50%, 1 to 10% and “could inhibit”.
Take `N[C@H](C(=O)O)[C@@H](N)C(=O)O` [Compound 43]: the inhibition at 50 µM in assay [2] (setting [7]), in assay [3] and in assay [4] (setting [8]) was 1 to 10% each time.
In the case of `CC(C)OC(=O)OCOC(=O)[C@@H](N)CC(=O)O` [Compound 51, 1-(((isopropoxycarbonyl)oxy)methyl) L-aspartic acid ester hydrochloride], in assay [3], the inhibition at 50 µM lay in the range of 1 to 10%.
Consider `N[C@@H](CC(=O)O)C(=O)OCOC(=O)[C@@H](N)CC(=O)O` [Compound 57, (3S,3'S)-4,4′-(methylenebis (oxy))bis (3-amino-4-oxobutyric acid) hydrochloride], for which, in assay [4] (Homo sapiens, LX-2, test concentration 25 μM, read-out: Smad3 mRNA inhibition rate), the inhibition at 25 µM was in the range of 1 to 10%.
Take `O=C(O)C[C@H](NC(=O)C1CC1)C(=O)O` [Compound 60, (cyclopropylcarbonyl)-L-aspartic acid]: the inhibition at 50 µM in assay [3] and in assay [4] (setting [8]) was 1 to 10% in each case.
As to `COC(=O)C[C@H](NC(C)=O)C(=O)O` [Compound 63, 4-methyl acetyl-L-aspartic acid ester], the figures for the inhibition at 50 µM in assay [2] (setting [7]) and in assay [3] were 10 to 25% and 1 to 10%, respectively. Moreover, in assay [5], the “inhibition of the expression of collagen I and collagen III at the mRNA level” value is “could inhibit”.
For the molecule `COC(=O)[C@H](CC(=O)O)NC(C)=O` [Compound 65, 1-methyl acetyl-L-aspartic acid ester], the inhibition at 12.5 µM in assay [1] (setting [6]) fell in the range of 10 to 25%; in assay [2] (setting [7]), 1 to 10%; in assay [3] (test concentration 12.5 μM), 1 to 10%.
For `CCC(=O)N[C@@H](CC(=O)O)C(=O)OC` [Compound 66, 1-methyl propionyl-L-aspartic acid ester], the inhibition at 50 µM in assay [1] (setting [6]) was in the range of 25 to 50%. Besides, the “inhibition of the expression of collagen I and collagen III at the mRNA level” value in assay [5] was “could inhibit”.
Consider `COC(=O)C[C@H](NC(=O)[C@H](C)N)C(=O)O` [Compound 67, (S)-2-((S)-2-aminopropionamido)-4-methoxy-4-oxobutyric acid hydrochloride] (HELM PEPTIDE1{A.D}|CHEM1{[CO[*:1]]}$PEPTIDE1,CHEM1,2:R3-1:R1$$$V2.0), for which, in assay [2] (setting [7]), the inhibition at 50 µM fell in the range of 1 to 10%.
For `COC(=O)C[C@H](N)C(=O)OC(C)OC(=O)[C@@H](N)CC(=O)OC` [Compound 68, O′1,O1-(ethan-1,1-diyl)4-dimethyl (2S,2'S)-bis (2-aminosuccinate) hydrochloride], the inhibition at 100 µM in assay [1] (setting [6]) lay within 1 to 10%; in assay [2] (setting [7]) it was 1 to 10%; in assay [3] it was 25 to 50%. Further, in assay [3], the “inhibition of the expression of α-SMA at the mRNA level” value (“inhibition of the expression of α-SMA” for short) is recorded as “could inhibit”.
Turning to `CCOC(=O)C[C@H](N)C(=O)OCOC(=O)[C@@H](N)CC(=O)OC` [Compound 70, 1-((((S)-2-amino-4-ethoxy-4-oxobutyryl)oxy)methyl) 4-methyl L-aspartic acid ester hydrochloride], the inhibition at 100 µM in assay [1] (setting [6]) fell in the range of 1 to 10%; in assay [2] (setting [7]), 10 to 25%; in assay [3], 50 to 75%. Also, the “inhibition of the expression of α-SMA” value in assay [3] is on record as “could inhibit”. Moreover, in assay [5], the “inhibition of the expression of collagen I and collagen III at the mRNA level” value is listed as “could inhibit”.
With `COC(=O)C[C@H](N)C(=O)OCOC(=O)[C@@H](N)CC(=O)OC(C)C` [Compound 71, 1-((((S)-2-amino-4-isopropoxy-4-oxobutyryl)oxy)methyl) 4-methyl L-aspartic acid ester hydrochloride], the values for the inhibition at 12.5 µM in assay [1] (setting [6]) and in assay [2] (setting [7]) were 10 to 25% and 1 to 10%, respectively. Further, the “inhibition of the expression of collagen I and collagen III at the mRNA level” value in assay [5] is listed as “could inhibit”.
In the case of `CCOC(=O)C[C@H](N)C(=O)OCOC(=O)[C@@H](N)CC(=O)OCC` [Compound 72, hydrochloride], the inhibition at 25 µM in assay [1] (Homo sapiens, LX-2, test concentration 25 μM, read-out: COL1A1 mRNA inhibition rate) lay within 25 to 50%; in assay [2] (Homo sapiens, LX-2, test concentration 25 μM, read-out: COL3A1 mRNA inhibition rate) it was 25 to 50%. The “inhibition of the expression of collagen I and collagen III at the mRNA level” value in assay [5] is listed as “could inhibit”.
Take `CC(C)OC(=O)C[C@H](N)C(=O)OCOC(=O)[C@@H](N)CC(=O)OC(C)C` [Compound 73, 4-diisopropyl O′1,O1-methylene (2S,2'S)-bis (2-aminosuccinate) hydrochloride]: in assay [3], the “inhibition of the expression of α-SMA” value is recorded as “could inhibit”. Moreover, the inhibition at 12.5 µM in assay [3] (test concentration 12.5 μM) lay in the range of 10 to 25%.
Regarding `COC(=O)C[C@H](N)C(=O)OCOC(=O)C[C@H](N)C(=O)OC.Cl` [Compound 74, 4-((((S)-2-amino-4-methoxy-4-oxobutyryl)oxy)methyl)1-methyl L-aspartic acid ester hydrochloride], the inhibition at 100 µM in assay [1] (setting [6]), in assay [2] (setting [7]) and in assay [3] was 25 to 50% in each case. Moreover, in assay [5], the “inhibition of the expression of collagen I and collagen III at the mRNA level” value is reported as “could inhibit”.

(Values after patent US20250025438A1, “Derivative of aspartic acid and use thereof in treatment of metabolic diseases such as hepatic fibrosis and non-alcoholic hepatitis” (SHENZHEN JINGTAI TECHNOLOGY CO., LTD., priority 2021, published 2025).)
